Measured values reported in patent publication US6331565A, “Dicaffeoylquinic acid for treating hepatitis B and the diseases associated with retrovirus, and the new caffeoylquinic acid derivatives” (Institute of Radiation Medicine Academy of Military Medical …, priority 1996, dated 2001).
Like-named read-outs stand apart in the source and are kept apart here.

What was measured:
HBV DNA polymerase = molecular target: T1, HBV DNA polymerase (Hepatitis B virus genotype D subtype ayw, UniProt P03156); experiment: HBV DNA polymerase assay; type: biochemical
T1 construct: HBV DNA polymerase in viral particles; host or cells: viral particles
Description: Assay was performed as described by Hantz (Antiviral Res 4(1984) 187-199) with minor modification. The Reaction mixture consisted of HBV DNA polymerase in viral particles in 200 mmol.l^-1 of Tris-HCl pH 7.6, 200 mmol.l^-1 of NH4 Cl. 50 mmol.l^-1 of MgCl2, 10 mmol.l^-1 of 2-mercaptoethanol, 2% Nonidet P-40 and 300 μmol.l^-1 concentrations of deoxynucleotide triphosphates except for [^3 H]dTTP, which was included in the assay at 20 μci.ml^-1. […] The mixtures were incubated at 37° C. for 4 h prior to spotting on Whatman No.3 filter paper which was washed 4 times with cold 5% trichloroacitic acid, then with ethanol. The HBV DNA polymerase activity as measure of the incorperation of the radionucleotide into the viral DNA was counted in a Recbeta (LKB)scintilation counter.

[1] = tested on: lymphocyte proliferation induced by Con A; settings: 50 mg/kg; for RPI: Normal = 100
Description: mice. Five-wk-old female C57BL/6 mice were used throughout the experiments. All mice were housed in sterile cages in a room supplied with filtrated air. They were given pelleted food and chlorinated water ad libitum.
Infection with LP-BM5 MuLV. Cell-free supernatants of LP-BM5 MULV were prepared by cocultivating G6 SC-1 clones with normal SC-1 cells for 5 days. Mice were inoculated intraperitoneally with 150 μl of stock solution containing 10^3,4×C plaque-forming units and 10^2,3 Mink-cell focks-forming units per […].
Then, the spleens were collected. Cell suspensions were prepared by repeated passage of whole spleen through a pipette, the capsule and debris were allowed to settle, and the supernatants containing cells were collected and washed twice in PBS. […] Incubation continued for 16 hr, then cells were collected on filter that was determined by a scintillation counter.

HBeAg = experiment: microbe, parasite or virus in culture; type: cell-based, HBV; settings: ACV, concentration not given
Description: (§1) The cultures were passenged by trypsinization every 4 days.
(§2) HBsAg and HBeAg in the culture medium were determined according to the protocol respectively. The culture medium (200 μl) was absorbed on beads containing antibody to HBsAg/HBeAg in the presence of the conjugate. After overnight incubation, the beads were washed 6 times with […] PBS containing 0.05% Tween-80 and incubated with 200 μl of [^125 I] anti-HBs(Hbe) overnight. The beads were washed 6 times as above. The amounts HBsAg/HBeAg as measure of cpm of [^125 I] labeled immunocomplex was counted on γ-counter.

HBsAg = experiment: microbe, parasite or virus in culture; type: cell-based, HBV; settings: ACV, concentration not given
Description: as §1, §2

DHBV = experiment: anti-DHBV test in ducks (serum DHBV DNA dot blot); type: in vivo, DHBV in Peking (Beijing) ducks; settings: for DHBV DNA, grayness of the dot: 50 mg/kg, X ± SD, n = 7
Description: One-day-old ducklings were infected with a 200 μl intravenous injection of DHBV-positive serum containing 10^11 viral genome equivalents per milliliter. Treatment began when ducklings were 7 days old. A total 89 seven-day-old viraemic ducks were distributed at random into five groups. […] Post-treatment follow-up was carried over a period of 5 days. Blood samples were obtained repectively from the leg vein of all ducks and stored at -70° C. after serum separation, prior to treatment, weekly during the treatment, and for 5 days after cessation of treatment. They were screened for presence of DHBV DNA by dot blot hybridization.
DHBV DNA in serum was analyzed by molecular hybridization using full length DHBV DNA clones in PB325. The DHBV DNA insert was purified by agarose gel electrophoresis after digestion with EcoRI. The DHBV DNA was radiolabeled with α^32 P-dCTP random oligopriming with Klenow fragment. Dot blot hybridization was carried out by the method of Scotto et al. Briefly, an aliquot (200 μl) serum was spotted onto a nylon membrane (Hybond-N, Amersham International, England) in dot blot manifold and denatured with 0.5 M NaOH--NaCl at room temperature for 30 min. Each spotted sample was neutralized in 1M Tris.HCl-1.5M NaCl (pH8.0). The DNA on the membrane was fixed by heating at 80° C. for 2 h, and prehybridization at 37° C. overnight in 50% formamide, 5×Denhardt's, 6×SSC,[…], 0.5% SDS and 10 mg/ml of calf thymus DNA. Hybridization was initiated by adding DHBV [^32 P] DNA probes at 10^6 cpm/ml at the same prehybridization conditions overnight. The membrane was washed in 3×SSC-0.1% SDS at room temperature, 42° C. and 65° C. for 10 min respectively. After hybridization the membranes were air-dried and exposed for periods of up to 14 days at -70° C. with Kodak film with an enhancer screen. The amount of viral DNA were assayed by both densitometry and image analysis of autoradiographic membranes.

T1 sequence (P03156 whole entry): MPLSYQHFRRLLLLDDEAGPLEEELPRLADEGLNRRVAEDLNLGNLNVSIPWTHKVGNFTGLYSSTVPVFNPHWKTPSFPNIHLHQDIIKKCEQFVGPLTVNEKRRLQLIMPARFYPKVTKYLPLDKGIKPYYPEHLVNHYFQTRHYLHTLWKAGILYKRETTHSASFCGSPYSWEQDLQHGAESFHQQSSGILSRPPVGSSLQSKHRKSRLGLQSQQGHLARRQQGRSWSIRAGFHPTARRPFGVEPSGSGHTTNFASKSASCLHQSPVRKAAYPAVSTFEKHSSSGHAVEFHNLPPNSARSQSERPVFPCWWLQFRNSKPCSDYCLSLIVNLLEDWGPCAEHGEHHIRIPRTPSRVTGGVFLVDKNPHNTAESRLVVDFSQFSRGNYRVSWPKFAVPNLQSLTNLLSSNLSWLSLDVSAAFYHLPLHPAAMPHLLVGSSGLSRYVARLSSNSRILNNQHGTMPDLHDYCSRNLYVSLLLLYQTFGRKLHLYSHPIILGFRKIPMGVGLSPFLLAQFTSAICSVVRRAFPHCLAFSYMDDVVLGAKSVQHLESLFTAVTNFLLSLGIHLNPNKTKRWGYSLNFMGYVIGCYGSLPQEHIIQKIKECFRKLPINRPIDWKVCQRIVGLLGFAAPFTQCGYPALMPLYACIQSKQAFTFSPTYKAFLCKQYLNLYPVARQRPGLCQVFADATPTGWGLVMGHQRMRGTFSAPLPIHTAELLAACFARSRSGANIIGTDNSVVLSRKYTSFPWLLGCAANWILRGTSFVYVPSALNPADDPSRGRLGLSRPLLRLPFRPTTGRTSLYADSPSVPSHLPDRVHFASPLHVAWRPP

O=C(O)P(=O)(O)O [PFA, reference compound]
IC50 (HBV DNA polymerase): 184 µM | inhibitory effect on HBV DNAp (HBV DNA polymerase): dose-dependent inhibitory effect | cpm (HBV DNA polymerase; 1 μg/ml): 10267 ± 77 cpm | cpm (HBV DNA polymerase; 10 μg/ml): 5495 ± 218 cpm | cpm (HBV DNA polymerase; 100 μg/ml): 3065 ± 67 cpm | cpm (HBV DNA polymerase; 1000 μg/ml): 2377 ± 329 cpm | inhibition at 1 µg/mL (HBV DNA polymerase; read-out: Inhibitory rate (%)): -5.2 ± 15.3% | inhibition at 10 µg/mL (HBV DNA polymerase; read-out: Inhibitory rate (%)): 44.4 ± 2.3% | inhibition at 100 µg/mL (HBV DNA polymerase; read-out: Inhibitory rate (%)): 69.7 ± 0.7% | inhibition at 1000 µg/mL (HBV DNA polymerase; read-out: Inhibitory rate (%)): 76.8 ± 3.4%

Cc1cn([C@H]2C[C@H](N=[N+]=[N-])[C@@H](CO)O2)c(=O)[nH]c1=O [AZT]
cpm ([1]; Con A (5 μg/ml)): 53287 ± 2043 cpm | RPI ([1]; Con A (5 μg/ml)): 95.10 | cpm ([1]; Con A ([…])): 33212 ± 2609 cpm | RPI ([1]; Con A ([…])): 93.21

Nc1nc2c(ncn2COCCO)c(=O)[nH]1 [ACV, acyclovir, reference compound]
HBeAg Inhibit rate (%) (HBeAg; day 4): 26.22 ± 1.17% | HBeAg cpm (HBeAg; day 4): 3910.9 ± 57.6 cpm | HBeAg Inhibit rate (%) (HBeAg; day 8): 26.75 ± 1.21% | HBeAg cpm (HBeAg; day 8): 6101.9 ± 96.17 cpm | HBeAg Inhibit rate (%) (HBeAg; day 12): 3.71 ± 1.36% | HBeAg cpm (HBeAg; day 12): 8194.1 ± 111.5 cpm | HBsAg Inhibit rate (%) (HBsAg; day 4): 48.20% | HBsAg cpm (HBsAg; day 4): 710.1 ± 65.7 cpm | HBsAg Inhibit rate (%) (HBsAg; day 8): 29.54 ± 5.15% | HBsAg cpm (HBsAg; day 8): 870.1 ± 51.1 cpm | HBsAg Inhibit rate (%) (HBsAg; day 12): 23.22% | HBsAg cpm (HBsAg; day 12): 622.5 ± 58.8 cpm | DHBV DNA, grayness of the dot (DHBV; P5 (day 5 after withdrawal)): 9.0 ± 8.6 K Grayness | DHBV DNA, grayness of the dot (DHBV; day 0 (before treatment), oral): 6.3 ± 4.2 K Grayness | DHBV DNA, grayness of the dot (DHBV; day 7, oral): 0.1 ± 0.3 K Grayness | DHBV DNA, grayness of the dot (DHBV; day 14, oral): 0.0 ± 0 K Grayness | viraemia returned to a level higher than that of pretreatment by (DHBV; day 5 after cessation of treatment): 43% | DHBV DNA from the sera (DHBV; during the 14 days of therapy, all 7 treated birds): substantial decrease of DHBV DNA from the sera
